We go through five compounds from PMC12286339 (PLOS One, 2025).

Data set [1] is described as follows: Pharmacokinetics in blood of C57BL/6 mice, 1st trial (single IV bolus, LC-MS, two-compartment model). The class given is in vivo. The following applies: individual mice, Tun 10 mg/mL 30uL IV. The procedure:
Eighty, 40 male (M) and 40 female (F), C57BL/6 mice were enrolled in the study on Day 0. Body weights, clinical observations, and digital caliper measurements were recorded. Eight (4M/4F) animals per treatment received a single 30uL intravenous bolus dose of the experimental samples (or control DMSO carrier) via the lateral tail vein, as shown in Fig 2A and S1 Table. […] After the first dosing, blood draws for the PK study were at 8-time points (5 min, 15 min, 30 min, 1 h, 2 h, 4 h, 6 h, 24 h). The mice were subdivided into 2 groups of 4 (2M/2F) mice each, with each subgroup having ~50 ul of blood collected via retro-orbital bleed for 4-time points (subgroup 1: 5 min, 30 min, 2h, and 6 h; subgroup 2: 15 min, 1h, 4h, and 24 h). In life, a collection of 50 μL of blood was diluted with 450 μL of ethanol and evaporated to dryness on a Speedvac evaporator under sterile conditions. The dried residues were stored at −80 °C and were shipped on dry ice to NCAUR, Peoria, for analysis. At the end of the study (24 h), the animals were euthanized, and terminal blood samples from all mice (100 µL) were collected via cardiac puncture, diluted with 900 μL of ethanol, and evaporated to dryness on a Speedvac. The dried residues are stored at −80 °C until ready for analysis.
For the comparative PK of tunicamycins in blood, drug concentrations were measured by LC–MS/MS as previously described. Different compartmental models (0, 1, or 2 compartments) and weighting options were assessed for goodness of fit by visual inspection of the observed versus predicted plots, weighted residual versus observed and predicted plots, and comparison of Akaike Information Criterion (AICc) values. A two-compartment IV bolus model was determined to describe the data best (S1 Fig).
Pharmacokinetic parameters were calculated by two-compartmental using a linear regression analysis and residuals method to calculate using Microsoft Excel 2024 using standard equations (Atkinson; 2007; Miyamato et al., 2019). Details about the PK equations to calculate drug concentrations and PK parameters are listed in the S1 Appendix.

Data set [2] is described as follows: 2nd mouse trial: co-administration with oxacillin, drug in blood, liver, heart and brain. The conditions noted are these: 24 h after 30uL IV of Tun 6.7 mg/mL + oxacillin 6.7 mg/mL, individual mice. As for the experimental part:
In the second trial, which was a drug co-localization study, forty (20 male and 20 female) C57BL/6 mice were enrolled on Study Day 0 and were dosed according to the experimental design shown in Fig 2A and S3 Table. Body weights and clinical observations were recorded as before. […] Blood samples were taken (50 μL) 5 min, 15 min, 30 min, 1h, 2h, 4h, 6h, and 24h post-injection. At the end of the study (24 h post dose) the mice were euthanized by CO2 asphyxiation, and liver, brain and heart were collected. The organs were homogenized in ethanol, then filtered to remove solids, and the ethanolic filtrate dried by Speedvac evaporation. The dried residues were stored at −80 °C and shipped on dry ice. Drug concentrations in tissue were measured by LC–MS/MS as previously described.

In data set [3] the test system is sheep. On the set-up: method as in earlier work. The following applies: cumulative from multiple smaller doses; cited from earlier work.
The conditions of data set [4]: in vivo; cited from earlier work.

“And” between values parts separate entries of the source, which are not always exact repeats. Identical values can stand only once.

Turning to `CC(=O)N[C@H]1[C@@H](O[C@@H]2O[C@H](C[C@@H](O)[C@H]3O[C@@H](n4ccc(=O)[nH]c4=O)[C@H](O)[C@@H]3O)[C@H](O)[C@H](O)[C@H]2NC(=O)/C=C/CCCCCCCCCC(C)C)O[C@H](CO)[C@@H](O)[C@@H]1O` [C15i], the “N-acyl variants in blood (1st trial)” value in data set [1] (time 0:05:00 (5 min)) is 4.16 µg/mL and 5.09 µg/mL and 2.96 µg/mL; in data set [1] (time 0:15:00 (15 min)), 3.05 µg/mL and 3.14 µg/mL and 1.44 µg/mL and 3.28 µg/mL; in data set [1] (time 0:30:00 (30 min)) it was 0 ug/mL (2×) and 0.88 ug/mL and 1.74 ug/mL; in data set [1] (time 1:00:00 (1 h)), 0 ug/mL (2×) and 0.77 ug/mL and 1.66 ug/mL; in data set [1] (time 2:00:00 (2 h)), 0 µg/mL; in data set [1] (time 4:00:00 (4 h)), 0 µg/mL. For the same compound, the “N-acyl variants in blood (1st trial)” value in data set [1] (time 6:00:00 (6 h)) and in data set [1] (time 24:00:00 (24 h)) was 0 µg/mL throughout. In addition, the “N-acyl variants in brain (2nd trial)” value in data set [2] came out at 0 µg/mL. The “N-acyl variants in heart (2nd trial)” value in data set [2] was found to be 0 µg/mL. Moreover, the “N-acyl variants in liver (2nd trial)” value in data set [2] was 0 µg/mL and 0.05015 µg/mL and 0.3411 µg/mL and 0.2948 µg/mL.
`CCC(C)CCCCCCCC/C=C/C(=O)N[C@H]1[C@H](O[C@H]2O[C@H](CO)[C@@H](O)[C@H](O)[C@H]2NC(C)=O)O[C@H](C[C@@H](O)[C@H]2O[C@@H](n3ccc(=O)[nH]c3=O)[C@H](O)[C@@H]2O)[C@H](O)[C@@H]1O` (some centres unmarked) [C15a]: the “N-acyl variants in blood (1st trial)” value in data set [1] (time 0:05:00 (5 min)) is 0.654 µg/mL and 0.6 µg/mL and 0 µg/mL; in data set [1] (time 0:15:00 (15 min)), 0 ug/mL (3×) and 0.45 ug/mL; in data set [1] (time 0:30:00 (30 min)) it was 0 µg/mL; in data set [1] (time 1:00:00 (1 h)), 0 µg/mL; in data set [1] (time 2:00:00 (2 h)), 0 µg/mL; in data set [1] (time 4:00:00 (4 h)) it was 0 µg/mL. Further, the “N-acyl variants in blood (1st trial)” value in data set [1] (time 6:00:00 (6 h)) and in data set [1] (time 24:00:00 (24 h)) was 0 µg/mL each time. Further, the “N-acyl variants in brain (2nd trial)” value in data set [2] is 0 µg/mL. For the same compound, in data set [2], the “N-acyl variants in heart (2nd trial)” value is 0 µg/mL. Besides, the “N-acyl variants in liver (2nd trial)” value in data set [2] is 0 µg/mL and 0.03337 µg/mL and 0.02831 µg/mL.
In the case of corynetoxins [Cnx], the oral lethal dose in data set [3] is 3.2 to 5.6 mg/kg.
For `CCCCCCCCCCCCCC/C=C/C(=O)N[C@H]1[C@H](O[C@H]2O[C@H](CO)[C@@H](O)[C@H](O)[C@H]2NC(C)=O)O[C@H](C[C@@H](O)[C@H]2O[C@@H](n3ccc(=O)[nH]c3=O)[C@H](O)[C@@H]2O)[C@H](O)[C@@H]1O` [C17s], the “N-acyl variants in blood (1st trial)” value in data set [1] (time 0:05:00 (5 min)), in data set [1] (time 0:15:00 (15 min)), in data set [1] (time 0:30:00 (30 min)), in data set [1] (time 1:00:00 (1 h)), in data set [1] (time 2:00:00 (2 h)) and in data set [1] (time 4:00:00 (4 h)) was 0 µg/mL in each case. Besides, the “N-acyl variants in blood (1st trial)” value in data set [1] (time 6:00:00 (6 h)) and in data set [1] (time 24:00:00 (24 h)) was 0 µg/mL in each case. Moreover, the “N-acyl variants in brain (2nd trial)” value in data set [2] worked out at 0 µg/mL. In addition, in data set [2], the “N-acyl variants in heart (2nd trial)” value turned out to be 0 µg/mL. The “N-acyl variants in liver (2nd trial)” value in data set [2] was 0 µg/mL and 0.1695 µg/mL and 0.1754 µg/mL.
On to `Cc1onc(-c2ccccc2)c1C(=O)N[C@@H]1C(=O)N2[C@@H]1SC(C)(C)[C@@H]2C(=O)O` [oxacillin], for which the “estimated t1/2” value in data set [4] is recorded as 7.8 min.
